Key:
Test in all cases: relative viability (nuclei count vs DMSO), 5 days (fraction); higher = more cells survive
Carboplatin + Trametinib = compound: C1CC(C1)(C(=O)O)C(=O)O.[NH2-].[NH2-].[Pt+2] [Carboplatin] + CC(=O)Nc1cccc(-n2c(=O)n(C3CC3)c(=O)c3c(Nc4ccc(I)cc4F)n(C)c(=O)c(C)c32)c1 [Trametinib] (partner 0.02 µM)
Procedure, shortened: (§1)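 Medians of duplicate plates are given as relative viability. That measure is the nuclei count in treated wells divided by the count in vehicle wells. Counts were taken on 4× images of lung cancer cell lines in 1536-well plates, 5 days after pin-tool dosing the day after seeding with one drug alone or a fixed anchor-drug dose plus five library-drug doses (not always all listed) in √10 steps.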

MLN4924 + Navitoclax = compound: NS(=O)(=O)OC[C@@H]1C[C@@H](n2ccc3c(N[C@H]4CCc5ccccc54)ncnc32)C[C@@H]1O [MLN4924] + CC1(C)CCC(c2ccc(Cl)cc2)=C(CN2CCN(c3ccc(C(=O)NS(=O)(=O)c4ccc(N[C@H](CCN5CCOCC5)CSc5ccccc5)c(S(=O)(=O)C(F)(F)F)c4)cc3)CC2)C1 [Navitoclax] (partner 0.5 µM)
Procedure, shortened: as §1

MLN4924 + Phenformin = compound: NS(=O)(=O)OC[C@@H]1C[C@@H](n2ccc3c(N[C@H]4CCc5ccccc54)ncnc32)C[C@@H]1O [MLN4924] + N=C(N)NC(=N)NCCc1ccccc1 [Phenformin] (partner 250 µM)
Procedure, shortened: as §1

MLN4924 + Olaparib = compound: NS(=O)(=O)OC[C@@H]1C[C@@H](n2ccc3c(N[C@H]4CCc5ccccc54)ncnc32)C[C@@H]1O [MLN4924] + O=C(c1cc(Cc2n[nH]c(=O)c3ccccc23)ccc1F)N1CCN(C(=O)C2CC2)CC1 [Olaparib] (partner 8 µM)
Procedure, shortened: as §1

Cell Line	relative viability (Carboplatin + Trametinib; first compound 0.08 µM)	relative viability (Carboplatin + Trametinib; first compound 0.253 µM)	relative viability (Carboplatin + Trametinib; first compound 0.8 µM)	relative viability (Carboplatin + Trametinib; first compound 2.53 µM)	relative viability (Carboplatin + Trametinib; first compound 8 µM)	relative viability (MLN4924 + Navitoclax; first compound 0.04 µM)	relative viability (MLN4924 + Navitoclax; first compound 0.1265 µM)	relative viability (MLN4924 + Navitoclax; first compound 0.4 µM)	relative viability (MLN4924 + Navitoclax; first compound 1.265 µM)	relative viability (MLN4924 + Navitoclax; first compound 4 µM)	relative viability (MLN4924 + Phenformin; first compound 0.04 µM)	relative viability (MLN4924 + Phenformin; first compound 0.1265 µM)	relative viability (MLN4924 + Phenformin; first compound 0.4 µM)	relative viability (MLN4924 + Phenformin; first compound 1.265 µM)	relative viability (MLN4924 + Phenformin; first compound 4 µM)	relative viability (MLN4924 + Olaparib; first compound 0.04 µM)	relative viability (MLN4924 + Olaparib; first compound 0.1265 µM)	relative viability (MLN4924 + Olaparib; first compound 0.4 µM)	relative viability (MLN4924 + Olaparib; first compound 1.265 µM)	relative viability (MLN4924 + Olaparib; first compound 4 µM)
HARA	0.68	0.865	0.917	0.412	0.607	0.847	0.601	0.379	0.105	0.115	0.35	0.355	0.177	0.0555	0.0476	0.401	0.413	0.127	0.0734	0.107
HCC-15	0.371	0.399	0.381	0.391	0.371	0.526	0.3	0.185	0.0995	0.114	0.319	0.191	0.145	0.0825	0.0982	0.318	0.164	0.159	0.106	0.0825
HCC-44	1.14	1.08	1.02	1.1	0.903	0.689	0.4	0.265	0.197	0.196	0.144	0.172	0.0837	0.0692	0.102	0.882	0.748	0.694	0.538	0.414
HCC-78	0.828	0.587	0.653	0.674	0.73	0.91	0.537	0.767	0.158	0.117	0.694	0.634	0.888	0.219	0.203	0.867	0.967	0.684	0.222	0.22
HCC-366	0.406	0.43	0.372	0.269	0.179	1.06	1.09	0.353	0.241	0.0154	0.612	0.634	0.454	0.11	0.0866	0.341	0.352	0.272	0.0846	0.0262
IA-LM						0.238	0.159	0.0746	0.0607	0.0616						0.458	0.297	0.227	0.0664	0.0734
LCLC-103H	0.703	0.703	0.68	0.689	0.654						0.358	0.368	0.347	0.157	0.143	0.717	0.615	0.665	0.292	0.293
NCI-H358	0.145	0.148	0.121	0.16	0.14						0.354	0.366	0.171	0.0905	0.0916	0.537	0.494	0.312	0.0861	0.105
NCI-H522	0.724	0.876	0.632	0.781	0.762						0.642	0.676	0.454	0.424	0.293	0.568	0.495	0.485	0.288	0.322
NCI-H650	1.01	1.08	1	0.849	0.818						0.355	0.287	0.224	0.197	0.199	0.244	0.159	0.17	0.137	0.129
NCI-H661	0.58	0.547	0.591	0.554	0.539						0.289	0.329	0.294	0.286	0.234	0.614	0.575	0.39	0.31	0.372
NCI-H1299						1.1	0.886	0.472	0.249	0.247						0.912	0.667	0.416	0.201	0.172
NCI-H1563											0.832	0.87	0.666	0.498	0.57					
NCI-H1623											0.503	0.479	0.39	0.274	0.248					
NCI-H1648	0.527	0.567	0.45	0.382	0.473											0.535	0.398	0.382	0.253	0.274
NCI-H1703						0.133	0.14	0.188	0.133	0.124						0.332	0.174	0.156	0.145	0.135
NCI-H2342	0.825	0.891	0.903	0.924	0.81						0.705	0.661	0.613	0.551	0.501	0.432	0.425	0.381	0.391	0.352
SW 900	0.794	0.904	1.07	0.7	0.759						0.205	0.483	0.258	0.15	0.128		0.594	0.429	0.233	0.228
